Molecules are shown by their SMILES. ≈ marks a conversion by molar mass, not a printed value.

Some test systems named below: Aureobasidium pullulans; Enterococcus faecalis; Staphylococcus aureus; Pseudomonas aeruginosa; Acinetobacter baumannii; Escherichia coli K-12; Klebsiella pneumoniae; Bacillus megaterium; Micrococcus luteus; Escherichia coli; Escherichia coli UB1005; Streptococcus pyogenes; Proteus mirabilis.
Common to all, as to assay: ≥ marks a high value that may be exact or a test limit, other limits are often not marked, values filed in µg/mL are converted to µM
For test [1], the system named is Pseudomonas aeruginosa ATCC 27853.
Test [2] has as its system Corynebacterium glutamicum ATCC 13032.
Test [3] relates to Staphylococcus aureus ATCC 9144.
Test [4] relates to Escherichia coli ATCC 25922.
Test [5] concerns Candida albicans ATCC 10231.
Test [6] concerns Pseudomonas aeruginosa PAO1.
The subject of test [7] is Staphylococcus aureus NCTC 8325-4.
Test [8] relates to Bacillus subtilis ATCC 23857.
Test [9] concerns Staphylococcus epidermidis.
The subject of test [10] is Candida albicans ATCC 90028.
The subject of test [11] is Cryptococcus neoformans ATCC 28957.
Test [12] concerns Salmonella enterica subsp. enterica serovar Typhimurium ATCC 14028.
For test [13], the system named is Bacillus subtilis CMCC 63501.
In test [14] the test system is Staphylococcus aureus ATCC 29213.
Test [15] relates to Salmonella enterica subsp. enterica serovar Pullorum C79-13.
The subject of test [16] is Enterococcus faecalis ATCC 29212.
The subject of test [17] is Staphylococcus epidermidis ATCC 12228.
Test [18] has as its system Salmonella enterica subsp. enterica serovar Typhimurium C77-31.
For test [19], the system named is Staphylococcus aureus ATCC 43300.

Take `CC(C)[C@H](NC(=O)[C@H](CCCCN)NC(=O)[C@H](C)NC(=O)[C@@H](NC(=O)[C@@H](NC(=O)[C@H](CCCN=C(N)N)NC(=O)[C@H](CCCN=C(N)N)NC(=O)[C@H](Cc1c[nH]c2ccccc12)NC(=O)[C@H](Cc1c[nH]c2ccccc12)NC(=O)CN)[C@@H](C)O)C(C)C)C(=O)N[C@@H](C)C(=O)N[C@@H](CCCCN)C(N)=O` [GWWRRTVAKVAK]: the MIC was 12.5 µM (≈ 18.2 µg/mL) in [1]; 1.6 µM (≈ 2.33 µg/mL) in [2]; at least 100 µM in [3]; at least 50 µM in the test on Aureobasidium pullulans; 12.5 µM (≈ 18.2 µg/mL) in test [4]; 25 µM (≈ 36.4 µg/mL) in test [5].

Turning to `CC(C)C[C@H](NC(=O)[C@H](CC(C)C)NC(=O)[C@H](CCCCN)NC(=O)[C@H](CCCCN)NC(=O)[C@H](C)NC(=O)[C@H](CC(C)C)NC(=O)[C@H](C)NC(=O)[C@H](CCCCN)NC(=O)[C@H](CC(C)C)NC(=O)[C@H](Cc1c[nH]c2ccccc12)NC(=O)[C@H](Cc1c[nH]c2ccccc12)NC(=O)[C@H](CCCN=C(N)N)NC(=O)[C@H](Cc1c[nH]c2ccccc12)NC(=O)[C@H](CCCCN)NC(=O)[C@@H](N)CCCCN)C(N)=O` [KKWRWWLKALAKKLL], the MIC in the test on Enterococcus faecalis is 0.356 µM (≈ 0.7 µg/mL); against Staphylococcus aureus, 0.254 µM (≈ 0.5 µg/mL); against Pseudomonas aeruginosa it was 0.61 µM (≈ 1.2 µg/mL); with Acinetobacter baumannii, 0.203 µM (≈ 0.4 µg/mL).

For `CC[C@H](C)[C@H](N)C(=O)N[C@@H](CCCCN)C(=O)N[C@@H](CCCCN)C(=O)N[C@H](C(=O)N[C@H](C(=O)N[C@@H](CCCCN)C(=O)N[C@@H](CCCCN)C(=O)N[C@H](C(=O)N[C@H](C(=O)N[C@@H](CCCCN)C(N)=O)[C@@H](C)CC)[C@@H](C)CC)[C@@H](C)CC)[C@@H](C)CC` [IKKIIKKIIK], the MIC in test [6] was over 500 µM; in test [7], at least 500 µM; against Escherichia coli K-12, at least 500 µM; against Klebsiella pneumoniae, over 500 µM.

As to `C[C@H](NC(=O)[C@H](CCCCN)NC(=O)[C@H](Cc1c[nH]c2ccccc12)NC(=O)CNC(=O)[C@H](Cc1c[nH]c2ccccc12)NC(=O)[C@H](Cc1c[nH]c2ccccc12)NC(=O)[C@H](CCCCN)NC(=O)[C@H](CCCCN)NC(=O)CN)C(=O)N[C@@H](CCCCN)C(N)=O` [GKKWWGWKAK], the minimal inhibitory concentration (MIC) with Bacillus megaterium is 0.785 µM (≈ 0.999 µg/mL); in test [1] it was 196 µM (≈ 250 µg/mL); in the test with Micrococcus luteus it was 12.2 µM (≈ 15.6 µg/mL); in [2], 1.57 µM (≈ 2 µg/mL); in test [8] it was 12.2 µM (≈ 15.6 µg/mL); in [3], at least 196 µM. Further, the MIC (with Aureobasidium pullulans; in test [4]; in [5]) was 24.6 µM (≈ 31.3 µg/mL) throughout.

Take `CC[C@H](C)[C@H](NC(=O)CNC(=O)[C@H](CCCN=C(N)N)NC(=O)[C@H](Cc1ccc(O)cc1)NC(=O)[C@H](CC(C)C)NC(=O)[C@H](CCCCN)NC(=O)CNC(=O)[C@H](Cc1ccccc1)NC(=O)[C@@H](N)Cc1c[nH]c2ccccc12)C(=O)N[C@H](C(=O)N[C@@H](CO)C(=O)N[C@H](C(=O)N[C@H](C(=O)N[C@@H](CCCCN)C(=O)N[C@@H](CCCCN)C(=O)N[C@H](C(=O)N[C@@H](CCCCN)C(=O)NCC(=O)N[C@@H](CC(C)C)C(=O)N[C@@H](CC(C)C)C(=O)N[C@@H](CO)C(=O)NCC(=O)O)C(C)C)C(C)C)C(C)C)[C@@H](C)O` [WFGKLYRGITSVVKKVKGLLSG]: the MIC in the test on Escherichia coli came to 1.3 µM (≈ 3.17 µg/mL); with Enterococcus faecalis, 2.6 µM (≈ 6.34 µg/mL); in test [9], 2.6 µM (≈ 6.34 µg/mL); with Staphylococcus aureus, 10.3 µM (≈ 25.1 µg/mL); against Pseudomonas aeruginosa, 2.6 µM (≈ 6.34 µg/mL); against Acinetobacter baumannii it was 1.3 µM (≈ 3.17 µg/mL). The same compound gave a minimal inhibitory concentration (MIC) against Klebsiella pneumoniae of 1.3 µM (≈ 3.17 µg/mL).

For the compound `CC[C@H](C)[C@H](N)C(=O)N[C@H](C(=O)N[C@@H](CC(N)=O)C(=O)N[C@@H](Cc1cnc[nH]1)C(=O)N[C@@H](CC(C)C)C(=O)N[C@H](C(=O)N[C@@H](CCCCN)C(=O)N[C@@H](CC(C)C)C(=O)N[C@@H](Cc1ccccc1)C(=O)N[C@@H](CC(=O)O)C(=O)N[C@@H](CCCCN)C(=O)NCC(=O)N[C@@H](CC(C)C)C(=O)N[C@@H](CC(N)=O)C(=O)N[C@@H](CO)C(=O)N[C@H](C(=O)N[C@H](C(=O)N[C@@H](CC(N)=O)C(=O)N[C@@H](CC(C)C)C(=O)N[C@@H](CCCN=C(N)N)C(N)=O)C(C)C)[C@@H](C)CC)C(C)C)C(C)C` [IVNHLVKLFDKGLNSIVNLR], the results for the minimal inhibitory concentration (MIC) in test [10], in test [8] and in test [11] were at least 128 µM, at least 64 µM and at least 128 µM, respectively.

Consider `C[C@H](NC(=O)[C@H](C)NC(=O)[C@H](CCCCN)NC(=O)[C@H](C)NC(=O)[C@H](C)NC(=O)[C@H](C)NC(=O)[C@H](CCCCN)NC(=O)[C@H](Cc1c[nH]c2ccccc12)NC(=O)[C@@H](N)Cc1c[nH]c2ccccc12)C(=O)N[C@@H](C)C(=O)N[C@@H](CCCCN)C(=O)N[C@@H](Cc1c[nH]c2ccccc12)C(=O)N[C@@H](Cc1c[nH]c2ccccc12)C(N)=O` [WWKAAAKAAAKWW], for which the MIC was determined as 8 µM (≈ 12.6 µg/mL) in test [1]; 8 µM (≈ 12.6 µg/mL) in test [12]; 4 µM (≈ 6.29 µg/mL) in test [13]; 4 µM (≈ 6.29 µg/mL) with Escherichia coli UB1005; 4 µM (≈ 6.29 µg/mL) in test [14]; 2 µM (≈ 3.15 µg/mL) in test [15]. Further, the MIC was 4 µM (≈ 6.29 µg/mL) in test [16], 2 µM (≈ 3.15 µg/mL) in test [4] and 4 µM (≈ 6.29 µg/mL) in test [17].

As for `NC(N)=NCCC[C@H](NC(=O)[C@H](CCCN=C(N)N)NC(=O)[C@H](CCCN=C(N)N)NC(=O)[C@H](CCCN=C(N)N)NC(=O)[C@H](CCCN=C(N)N)NC(=O)[C@H](CCCN=C(N)N)NC(=O)[C@H](CCCN=C(N)N)NC(=O)[C@H](CCCN=C(N)N)NC(=O)[C@H](Cc1c[nH]c2ccccc12)NC(=O)[C@@H](N)Cc1c[nH]c2ccccc12)C(=O)O` [WWRRRRRRRR], the MIC against Streptococcus pyogenes was 0.61 µM (≈ 1 µg/mL); against Staphylococcus aureus it was 5.49 µM (≈ 9 µg/mL); against Pseudomonas aeruginosa, over 39 µM; in the test on Proteus mirabilis, at least 39 µM.

For the compound `CC[C@H](C)[C@H](NC(=O)[C@H](CCCN=C(N)N)NC(=O)[C@H](CCCCN)NC(=O)[C@H](Cc1ccccc1)NC(=O)[C@H](CCC(=O)O)NC(=O)[C@H](CCCCN)NC(=O)CN)C(=O)N[C@H](C(=O)N[C@@H](Cc1c[nH]c2ccccc12)C(=O)N[C@@H](CC(C)C)C(=O)N[C@@H](CO)C(=O)N[C@@H](CCCCN)C(=O)N[C@H](C(=O)N[C@@H](C)C(=O)N[C@@H](CCCCN)C(=O)N[C@@H](CCCCN)C(=O)N[C@@H](CC(C)C)C(N)=O)[C@@H](C)O)C(C)C` [GKEFKRIVWLSKTAKKL], the MIC is over 128 µM in test [1]; at least 128 µM in test [18]; at least 128 µM in test [13]; at least 128 µM against Escherichia coli UB1005; over 128 µM in test [14]; 16 µM (≈ 32.5 µg/mL) in [15]. Besides, the MIC in [19] was over 128 µM; in test [16] it was over 128 µM; in test [4], 32 µM (≈ 65 µg/mL); in [17], over 128 µM.

A word on the MIC: it is the smallest concentration in the dilution series that meets the test's criterion for growth inhibition. Low readings indicate inhibition by little substance, high ones a need for much substance.
